What was measured:
[1] = system: liposarcoma line (ATCC HTB-92); experiment: Growth inhibition in liposarcoma line ATCC HTB-92 (cell survival vs untreated controls); assay type: cell-based
Text: (§1) Examples 1 and 2 show direct comparisons between comparative compound A (betulic acid) and a novel derivative (compound B) in paired growth assays (cell count decrease after 3 days after a single application of the indicated concentrations of the respective compounds on day 1).
Comparison of the efficacy of comparative compound (A) (betulic acid) with that of compound (B) (protected betulic acid trisester) in a liposarcoma line (ATCC HTB-92). The X-axis indicates the concentration in μg/ml of compounds A and B, respectively, the Y-axis gives the cell survival rate in percent of the untreated controls. […]

melanoma cell line 518A2 = experiment: Growth inhibition in melanoma cell line 518A2 (cell survival vs untreated controls); assay type: cell-based
Text: as §1
Comparison of compound (A) (betulic acid) with compound (B) (protected betulic acid trisester)—Growth inhibition in melanoma cell line 518A2 (obtained from Peter Schrier, Leiden, The Netherlands) […]. The X-axis indicates the concentration in μg/ml of compounds A and B, respectively, the Y-axis gives the cell survival rate in percent of the untreated controls.
Comparison of the effects of different betulic acid derivatives according to the invention and of the comparative compound (betulic acid), respectively, on various melanoma-sarcoma lines. The data each refer to cell survival rates in percent (mean values) as against untreated cell cultures.
Survival in percent as with all other data after 3 days of cell culture after a single application on day 1

[2] = liposarcoma ATCC HTB-92, 0.3 μg/ml
[3] = liposarcoma ATCC HTB-92, 0.6 μg/ml
[4] = liposarcoma ATCC HTB-92, 1 μg/ml
[5] = liposarcoma ATCC HTB-92, 1.25 μg/ml
[6] = liposarcoma ATCC HTB-92, 2.5 μg/ml
[7] = liposarcoma ATCC HTB-92, 5 μg/ml
[8] = liposarcoma ATCC HTB-92, 10 μg/ml

SMILES: C=C(C)[C@@H]1CC[C@]2(C(=O)O)CC[C@]3(C)[C@H](CC[C@@H]4[C@@]5(C)CC[C@H](O)C(C)(C)[C@@H]5CC[C@]43C)[C@@H]12 [A, betulic acid, reference compound]
- survival in % [1, 2]: 98.0%
- survival in % [1, 3]: 92.8%
- survival in % [1, 4]: 92.3%
- survival in % [1, 5]: 79.5%
- survival in % [1, 6]: 49.3%
- survival in % [1, 7]: 20.8%
- survival in % [1, 8]: 15.7%

SMILES: C=C(C)[C@@H]1CC[C@]2(C(=O)OCC(N)(CO)CO)CC[C@]3(C)[C@H](CC[C@@H]4[C@@]5(C)CC[C@H](OC(C)=O)C(C)(C)[C@@H]5CC[C@]43C)[C@@H]12 [Compound B, Acetyl betulic acid-2-amino-3-hydroxy-2-hydroxymethyl propyl ester]
- Survival in % melanoma (melanoma cell line 518A2; Test #1: stock 50 mg/ml in EtOH, 1.0 μg/ml, 3 days): 50%
- Survival in % melanoma (melanoma cell line 518A2; Test #1: stock 50 mg/ml in EtOH, 2.0 μg/ml, 3 days): 0.5%
- Survival in % melanoma (melanoma cell line 518A2; Test #1: stock 50 mg/ml in EtOH, 3.0 μg/ml, 3 days): 0.0%
- Survival in % melanoma (melanoma cell line 518A2; Test #1: stock 50 mg/ml in EtOH, 4.0 μg/ml, 3 days): 0.0%
- Survival in % melanoma (melanoma cell line 518A2; Test #2: inclusion compound, 5.9 mg/ml in 266 mg/ml HBC in H2O, 1.0 μg/ml, 3 days): 65%
- Survival in % melanoma (melanoma cell line 518A2; Test #2: inclusion compound, 5.9 mg/ml in 266 mg/ml HBC in H2O, 2.0 μg/ml, 3 days): 25%
- Survival in % melanoma (melanoma cell line 518A2; Test #2: inclusion compound, 5.9 mg/ml in 266 mg/ml HBC in H2O, 3.0 μg/ml, 3 days): 0.0%
- Survival in % melanoma (melanoma cell line 518A2; Test #2: inclusion compound, 5.9 mg/ml in 266 mg/ml HBC in H2O, 4.0 μg/ml, 3 days): 0.0%
- Survival in % melanoma (melanoma cell line 518A2; Test #3: inclusion compound, 20 mg/ml in 266 mg/ml HBC in 50% EtOH/50% H2O, 1.0 μg/ml, 3 days): 77%
- Survival in % melanoma (melanoma cell line 518A2; Test #3: inclusion compound, 20 mg/ml in 266 mg/ml HBC in 50% EtOH/50% H2O, 2.0 μg/ml, 3 days): 24%
- Survival in % melanoma (melanoma cell line 518A2; Test #3: inclusion compound, 20 mg/ml in 266 mg/ml HBC in 50% EtOH/50% H2O, 3.0 μg/ml, 3 days): 0.0%
- Survival in % melanoma (melanoma cell line 518A2; Test #3: inclusion compound, 20 mg/ml in 266 mg/ml HBC in 50% EtOH/50% H2O, 4.0 μg/ml, 3 days): 0.0%
- Survival in % melanoma (melanoma cell line 518A2; Test #4: inclusion compound, 25 mg/ml in 200 mg/ml HGC in 50% EtOH/50% H2O, 1.0 μg/ml, 3 days): 59%
- Survival in % melanoma (melanoma cell line 518A2; Test #4: inclusion compound, 25 mg/ml in 200 mg/ml HGC in 50% EtOH/50% H2O, 2.0 μg/ml, 3 days): 4%
- Survival in % melanoma (melanoma cell line 518A2; Test #4: inclusion compound, 25 mg/ml in 200 mg/ml HGC in 50% EtOH/50% H2O, 3.0 μg/ml, 3 days): 0.0%
- survival in % (melanoma cell line 518A2; melanoma 518A2, 0.3 μg/ml): 83.0%
- survival in % (melanoma cell line 518A2; melanoma 518A2, 0.6 μg/ml): 56.3%
- survival in % (melanoma cell line 518A2; melanoma 518A2, 1 μg/ml): 11.3%
- survival in % (melanoma cell line 518A2; melanoma 518A2, 1.25 μg/ml): 10.3%
- survival in % (melanoma cell line 518A2; melanoma 518A2, 2.5 μg/ml): 2.8%
- survival in % (melanoma cell line 518A2; melanoma 518A2, 5 μg/ml): 0.0%
- survival in % (melanoma cell line 518A2; melanoma 518A2, 10 μg/ml): 0.0%
- activity relative to comparative compound (A) (melanoma cell line 518A2; melanoma cell line 518A2, from ED50): up to 7 times
- survival in % [1, 2]: 89.5%
- survival in % [1, 3]: 70.7%
- survival in % [1, 4]: 12.0%
- survival in % [1, 5]: 2.9%
- survival in % [1, 6]: 3.0%
- survival in % [1, 7]: 0.0%
- survival in % [1, 8]: 0.0%

SMILES: C=C(C)[C@@H]1CC[C@]2(C(=O)NC(CO)(CO)CO)CC[C@]3(C)[C@H](CC[C@@H]4[C@@]5(C)CC[C@H](OC(C)=O)C(C)(C)[C@@H]5CC[C@]43C)[C@@H]12 [Compound C, Acetyl betulic acid-N-(1,1-bis(hydroxymethyl)-2-hydroxyethyl)formamide]
- Survival in % melanoma (melanoma cell line 518A2; melanoma 518A2, 0.25 μg/ml): 96%
- Survival in % melanoma (melanoma cell line 518A2; melanoma 518A2, 0.5 μg/ml): 93%
- survival in % (melanoma cell line 518A2; melanoma 518A2, 1 μg/ml): 67.5%
- survival in % [1, 2]: 96%
- survival in % [1, 3]: 82%
- survival in % [1, 4]: 81%

Source: patent US7312205B2, “Methods and compositions for inhibiting tumor growth” (Novelix Pharmaceuticals, Inc., priority 2003, dated 2007)
